{
  "source": "patent US20170333591A9",
  "about": "“ABSORBENT ARTICLE COMPRISING MALODOR REDUCTION COMPOSITIONS” (The Procter & Gamble Company, priority 2014, published 2017)",
  "assay": "Log of liquid dish neat product liquid-air partition coefficient",
  "assay_type": "physicochemical",
  "conditions": "for Log of liquid dish neat product liquid-air partition coefficient (Comment Code): code letters K/L of the Comment Code",
  "data": [
    {"smiles": "CC12CCCC(O)(C1)C1CC(C)(C)C1CC2", "note": "(stereo not shown) [Material 574]", "values": [
      {"measurement": "Comment Code: Log of liquid dish neat product liquid-air partition coefficient", "value": "K (Log of liquid dish neat product liquid-air partition coefficient greater than or equal to 7)"},
      {"measurement": "Log of liquid dish neat product liquid-air partition coefficient (Comment Code)", "value": "K (Log of liquid dish neat product liquid-air partition coefficient greater than or equal to 7)"}
    ]},
    {"smiles": "Cc1ccc(C(C)C)cc1O", "note": "[Material 575]", "values": [
      {"measurement": "Comment Code: Log of liquid dish neat product liquid-air partition coefficient", "value": "K (Log of liquid dish neat product liquid-air partition coefficient greater than or equal to 7)"}
    ]},
    {"smiles": "C=C(C)C1CC=C(C)C(OC(C)=O)C1", "note": "(stereo not shown) [Material 577]", "values": [
      {"measurement": "Log of liquid dish neat product liquid-air partition coefficient (Comment Code)", "value": "K (Log of liquid dish neat product liquid-air partition coefficient greater than or equal to 7)"}
    ]},
    {"smiles": "CCOCCOCCO", "note": "[Material 579]", "values": [
      {"measurement": "Comment Code: Log of liquid dish neat product liquid-air partition coefficient", "value": "K (Log of liquid dish neat product liquid-air partition coefficient greater than or equal to 7)"}
    ]},
    {"smiles": "CCCCCCCCCC(=O)O", "note": "[Material 582]", "values": [
      {"measurement": "Log of liquid dish neat product liquid-air partition coefficient (Comment Code)", "value": "K (Log of liquid dish neat product liquid-air partition coefficient greater than or equal to 7)"}
    ]},
    {"smiles": "COc1ccc(CC(C)C=O)cc1", "note": "(stereo not shown) [Material 586]", "values": [
      {"measurement": "Log of liquid dish neat product liquid-air partition coefficient (Comment Code)", "value": "K (Log of liquid dish neat product liquid-air partition coefficient greater than or equal to 7)"}
    ]},
    {"smiles": "CC12CCC(C(=O)C1=O)C2(C)C", "note": "(stereo not shown) [Material 587]", "values": [
      {"measurement": "Log of liquid dish neat product liquid-air partition coefficient (Comment Code)", "value": "K (Log of liquid dish neat product liquid-air partition coefficient greater than or equal to 7)"}
    ]},
    {"smiles": "CCCCOC(=O)C(C)OC(=O)CCC", "note": "(stereo not shown) [Material 595]", "values": [
      {"measurement": "Log of liquid dish neat product liquid-air partition coefficient (Comment Code)", "value": "K (Log of liquid dish neat product liquid-air partition coefficient greater than or equal to 7)"}
    ]},
    {"smiles": "C=CCCCCCCCCC(=O)OCCCC", "note": "[Material 599]", "values": [
      {"measurement": "Log of liquid dish neat product liquid-air partition coefficient (Comment Code)", "value": "K (Log of liquid dish neat product liquid-air partition coefficient greater than or equal to 7)"}
    ]},
    {"smiles": "CC1=CCC(CCC(C)CO)C1(C)C", "note": "(stereo not shown) [Material 600]", "values": [
      {"measurement": "Log of liquid dish neat product liquid-air partition coefficient (Comment Code)", "value": "K (Log of liquid dish neat product liquid-air partition coefficient greater than or equal to 7)"}
    ]},
    {"smiles": "CC(C)(C)c1ccc(CCC=O)cc1", "note": "[Material 601]", "values": [
      {"measurement": "Log of liquid dish neat product liquid-air partition coefficient (Comment Code)", "value": "K (Log of liquid dish neat product liquid-air partition coefficient greater than or equal to 7)"}
    ]},
    {"smiles": "CC1=C(C/C=C(\\C)C=O)C(C)(C)CCC1", "note": "[Material 602]", "values": [
      {"measurement": "Comment Code: Log of liquid dish neat product liquid-air partition coefficient", "value": "K (Log of liquid dish neat product liquid-air partition coefficient greater than or equal to 7)"}
    ]},
    {"smiles": "CC(C)C(=O)OC1CC2CCC1(C)C2(C)C", "note": "(stereo not shown) [Material 603]", "values": [
      {"measurement": "Comment Code: Log of liquid dish neat product liquid-air partition coefficient", "value": "K (Log of liquid dish neat product liquid-air partition coefficient greater than or equal to 7)"},
      {"measurement": "Log of liquid dish neat product liquid-air partition coefficient (Comment Code)", "value": "K (Log of liquid dish neat product liquid-air partition coefficient greater than or equal to 7)"}
    ]},
    {"smiles": "C=C1C2CCC(C)(OCC)C1CCC2(C)C", "note": "(stereo not shown) [Material 606]", "values": [
      {"measurement": "Log of liquid dish neat product liquid-air partition coefficient (Comment Code)", "value": "K (Log of liquid dish neat product liquid-air partition coefficient greater than or equal to 7)"}
    ]},
    {"smiles": "CCOCOC1CCCCCCCCCCC1", "note": "[Material 607]", "values": [
      {"measurement": "Log of liquid dish neat product liquid-air partition coefficient (Comment Code)", "value": "K (Log of liquid dish neat product liquid-air partition coefficient greater than or equal to 7)"}
    ]},
    {"smiles": "CC(C)=CCCC(C)=C1CC=C(C)CC1", "note": "[Material 608]", "values": [
      {"measurement": "Log of liquid dish neat product liquid-air partition coefficient (Comment Code)", "value": "K (Log of liquid dish neat product liquid-air partition coefficient greater than or equal to 7)"}
    ]},
    {"smiles": "CC1=CC(=O)CC(C)C12CCC(=C(C)C)C2", "note": "(stereo not shown) [Material 610]", "values": [
      {"measurement": "Log of liquid dish neat product liquid-air partition coefficient (Comment Code)", "value": "K (Log of liquid dish neat product liquid-air partition coefficient greater than or equal to 7)"}
    ]},
    {"smiles": "C=C(C)C1CCC(C)(OC(C)=O)CC1", "note": "(stereo not shown) [Material 611]", "values": [
      {"measurement": "Log of liquid dish neat product liquid-air partition coefficient (Comment Code)", "value": "K (Log of liquid dish neat product liquid-air partition coefficient greater than or equal to 7)"}
    ]},
    {"smiles": "C=C(C)C1CCC(C)(O)CC1", "note": "(stereo not shown) [Material 612]", "values": [
      {"measurement": "Log of liquid dish neat product liquid-air partition coefficient (Comment Code)", "value": "K (Log of liquid dish neat product liquid-air partition coefficient greater than or equal to 7)"}
    ]},
    {"smiles": "C=CC(=C)CCC=C(C)CCC=C(C)C=O", "note": "[Material 613]", "values": [
      {"measurement": "Log of liquid dish neat product liquid-air partition coefficient (Comment Code)", "value": "K (Log of liquid dish neat product liquid-air partition coefficient greater than or equal to 7)"}
    ]}
  ]
}
